Some test systems named below: A549; HOP-62; SN12C; SK-MEL-2; U-251; UACC-62; SR; KM12; HCT-15; M14; OVCAR-4; UO-31; OVCAR-8; RPMI-8226; OVCAR-3; UACC-257; NCI-H226; SF-539.
Common to all, as to assay: inhibition of tumour cell growth, NCI panel, 48 h

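Cultured in 96-well plates, cells were exposed to test compound for 48 hours across five concentrations. Abbreviation: GI50, concentration required for 50% inhibition of growth.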 Activity calls are given as the source filed them. Cut-off read from the data, not from the text of the source: active = GI50 up to about 1.1 µM and inactive = higher. Bounds are passed on as bounds.

For the compound `CCCCCCCCCCCC(=O)OCCOCCOCCOCCOCCOCc1ccccc1`, the GI50 with A549, with HOP-62, in the experiment on SN12C, in the experiment on SK-MEL-2, in the experiment on U-251 and with UACC-62 was > 100 µM (inactive) each time. Also, the GI50 in the experiment with SR was > 100 µM (inactive); with KM12 it was > 100 µM (inactive); with HCT-15 it was more than 100 µM; in the experiment on M14, > 100 µM (inactive); with OVCAR-4, > 100 µM (inactive); with UO-31, > 100 µM (inactive). Besides, the GI50 in the experiment with OVCAR-8, in the experiment on RPMI-8226, with OVCAR-3, with UACC-257 and with NCI-H226 was > 100 µM (inactive) throughout.
Turning to `CCOC(=O)COc1ccc(OCC(=O)OCC)c2c1C(=O)CCCC2=O`, the GI50 in the experiment on A549, with HOP-62, with SN12C, in the experiment with SK-MEL-2, in the experiment on U-251 and in the experiment with SF-539 was > 100 µM (inactive) in each case. Further, the GI50 is > 100 µM (inactive) in the experiment with UACC-62; > 100 µM (inactive) in the experiment with SR; > 100 µM (inactive) in the experiment with KM12; more than 100 µM in the experiment on HCT-15; > 100 µM (inactive) in the experiment with M14; > 100 µM (inactive) in the experiment on UO-31. The GI50 in the experiment with OVCAR-8, in the experiment with RPMI-8226, in the experiment on OVCAR-3, with UACC-257 and in the experiment with NCI-H226 was > 100 µM (inactive) in each case.
Consider `CC(=O)C1=NN(c2ccccc2)C2(S1)SC(c1ccccc1)(c1ccccc1)c1ccccc12` (centres undefined), for which the GI50 was 36.7 µM (inactive) in the experiment with A549; 34.6 µM (inactive) in the experiment on HOP-62; > 100 µM (inactive) in the experiment with SN12C; 27 µM (inactive) in the experiment on SK-MEL-2; 44.7 µM (inactive) with U-251; 60.8 µM (inactive) with SF-539. Also, the GI50 is 17.9 µM (inactive) in the experiment on UACC-62; 20.4 µM (inactive) with SR; 74.5 µM (inactive) with KM12; more than 100 µM with HCT-15; 44.8 µM (inactive) in the experiment with M14; 24.2 µM (inactive) in the experiment with OVCAR-4. The GI50 in the experiment with UO-31 was > 100 µM (inactive); in the experiment on OVCAR-8 it was 34.9 µM (inactive); in the experiment on RPMI-8226 it was 44.1 µM (inactive); in the experiment on OVCAR-3 it was 51.3 µM (inactive); in the experiment with UACC-257 it was 34.4 µM (inactive); in the experiment on NCI-H226, 16.1 µM (inactive).
As to `N#CCCN(c1ccc(/C=N/c2ccc(C(=O)O)cc2)cc1)S(=O)(=O)c1ccccc1`, the GI50 in the experiment on A549, in the experiment with HOP-62, in the experiment on SN12C, in the experiment on SK-MEL-2, with U-251 and with SF-539 was > 100 µM (inactive) in each case. The GI50 is > 100 µM (inactive) in the experiment on UACC-62; > 100 µM (inactive) with SR; > 100 µM (inactive) in the experiment with KM12; more than 100 µM in the experiment on HCT-15; > 100 µM (inactive) in the experiment with M14; > 100 µM (inactive) in the experiment with OVCAR-4. Moreover, the GI50 in the experiment with UO-31, with OVCAR-8, with RPMI-8226, in the experiment with OVCAR-3, in the experiment with UACC-257 and in the experiment on NCI-H226 was > 100 µM (inactive) in each case.
`COc1c(C)n(CCO)ccc1=O`: the GI50 with A549, in the experiment with HOP-62, in the experiment with SN12C, in the experiment on SK-MEL-2, in the experiment on U-251 and in the experiment on UACC-62 was > 100 µM (inactive) throughout. Besides, the GI50 with SR was > 100 µM (inactive); in the experiment on KM12, > 100 µM (inactive); in the experiment on HCT-15 it was more than 100 µM; in the experiment on M14, > 100 µM (inactive); with OVCAR-4 it was > 100 µM (inactive); in the experiment with UO-31, > 100 µM (inactive). The GI50 with OVCAR-8, with RPMI-8226, in the experiment with OVCAR-3, in the experiment on UACC-257 and with NCI-H226 was > 100 µM (inactive) in each case.
Consider `COC(=O)CC(NC(=O)OCc1ccccc1)C(C(=O)OCc1ccccc1)C(C)(OC)OC` (centres undefined), for which the GI50 was 17.3 µM (inactive) in the experiment on A549; 44.9 µM (inactive) in the experiment on HOP-62; 30.5 µM (inactive) with SN12C; 17.6 µM (inactive) in the experiment with SK-MEL-2; 27 µM (inactive) with U-251; 29.2 µM (inactive) with SF-539. Besides, the GI50 in the experiment with UACC-62 is 10.5 µM (inactive); in the experiment on SR, 8.81 µM (inactive); in the experiment with HCT-15 it was 32.1 µM; with M14, 33.6 µM (inactive); in the experiment on OVCAR-4, 28.6 µM (inactive); with UO-31 it was 14.6 µM (inactive). Also, the GI50 was 19.5 µM (inactive) in the experiment on OVCAR-8; 10 µM (inactive) in the experiment with RPMI-8226; 21.3 µM (inactive) with OVCAR-3; 23.7 µM (inactive) with UACC-257; 22.6 µM (inactive) in the experiment on NCI-H226.
On to `CCOC1c2cc(C(C)C)c(O)c(O)c2[C@@]23CCCC(C)(C)C2C1OC3=O` (some centres undefined), for which the GI50 is 82.4 µM (inactive) with A549; > 100 µM (inactive) in the experiment with HOP-62; 94 µM (inactive) with SN12C; > 100 µM (inactive) with SK-MEL-2; > 100 µM (inactive) with U-251; > 100 µM (inactive) with SF-539. Further, the GI50 with UACC-62 was 83.2 µM (inactive); in the experiment with SR it was 61.4 µM (inactive); with HCT-15 it was 91 µM; in the experiment with M14 it was > 100 µM (inactive); with UO-31 it was 35.8 µM (inactive); in the experiment with OVCAR-8, > 100 µM (inactive). Further, the GI50 in the experiment on RPMI-8226 was 40.6 µM (inactive); with OVCAR-3 it was 84.5 µM (inactive); with UACC-257 it was > 100 µM (inactive); in the experiment on NCI-H226, > 100 µM (inactive).
With `C#C[C@@H](CCCC)OC(=O)N[C@H](C)c1ccccc1`, the GI50 in the experiment on A549 was 6.82 µM (inactive); in the experiment on HOP-62 it was > 100 µM (inactive); in the experiment on SN12C, 71.6 µM (inactive); with SK-MEL-2 it was 23.4 µM (inactive); in the experiment with U-251, 37.4 µM (inactive); in the experiment with SF-539, 2.16 µM (inactive). The GI50 was 4.98 µM (inactive) with UACC-62; 21.3 µM (inactive) with SR; 39.7 µM (inactive) with KM12; 11.5 µM (inactive) in the experiment with M14; 39.2 µM (inactive) in the experiment on OVCAR-4; 19 µM (inactive) in the experiment with UO-31. In addition, the GI50 is 13.7 µM (inactive) in the experiment on OVCAR-8; 23 µM (inactive) in the experiment with RPMI-8226; 35.4 µM (inactive) with OVCAR-3; 44.8 µM (inactive) with UACC-257; 22.5 µM (inactive) with NCI-H226.
On to `Brc1ccc(C[P+]2(c3ccccc3)CCCCC2)cc1.[O-][Cl+3]([O-])([O-])[O-]`, for which the GI50 in the experiment on A549 was > 100 µM (inactive); in the experiment on HOP-62 it was > 100 µM (inactive); in the experiment with SN12C, > 100 µM (inactive); in the experiment on SK-MEL-2, 33.7 µM (inactive); in the experiment with U-251, 29.6 µM (inactive); with SF-539 it was 82.4 µM (inactive). Moreover, the GI50 in the experiment on UACC-62 was 41.1 µM (inactive); in the experiment with SR, 38.1 µM (inactive); in the experiment with KM12, 56.1 µM (inactive); with HCT-15 it was more than 100 µM; in the experiment on M14, 65.9 µM (inactive); in the experiment with UO-31, > 100 µM (inactive). The GI50 with OVCAR-8 was 95.1 µM (inactive); in the experiment on RPMI-8226, 25.8 µM (inactive); with OVCAR-3 it was 43.6 µM (inactive); in the experiment on UACC-257 it was 23.9 µM (inactive); with NCI-H226, > 100 µM (inactive).
Take `CCOC(=O)/N=c1/nc(N(C)C)ss1`: the GI50 in the experiment on A549, with HOP-62, in the experiment with SN12C, in the experiment with SK-MEL-2, in the experiment on U-251 and with SF-539 was > 100 µM (inactive) throughout. The GI50 with UACC-62 is > 100 µM (inactive); with SR, > 100 µM (inactive); in the experiment with KM12, > 100 µM (inactive); with HCT-15, more than 100 µM; with M14 it was > 100 µM (inactive); in the experiment with OVCAR-4, > 100 µM (inactive). The GI50 in the experiment with UO-31 is > 100 µM (inactive); in the experiment with OVCAR-8, > 100 µM (inactive); with RPMI-8226 it was > 100 µM (inactive); in the experiment on UACC-257 it was > 100 µM (inactive); in the experiment with NCI-H226 it was 30.3 µM (inactive).
`N#CCC(=O)Nc1cccc(C(F)(F)F)c1`: the GI50 in the experiment on A549, in the experiment on HOP-62, with SN12C, in the experiment on SK-MEL-2, in the experiment with U-251 and in the experiment on SF-539 was > 100 µM (inactive) throughout. Further, the GI50 in the experiment on UACC-62 was > 100 µM (inactive); in the experiment on SR, > 100 µM (inactive); with KM12, > 100 µM (inactive); in the experiment on HCT-15, more than 100 µM; with M14 it was > 100 µM (inactive); in the experiment on OVCAR-4 it was > 100 µM (inactive). In addition, the GI50 in the experiment with UO-31 was > 100 µM (inactive); in the experiment with OVCAR-8 it was > 100 µM (inactive); in the experiment on OVCAR-3 it was 84.3 µM (inactive); in the experiment with UACC-257, > 100 µM (inactive); with NCI-H226, > 100 µM (inactive).
Consider `c1cnc2c(c1)-n1cccc1C1(CCSCC1)NN2`, for which the GI50 with A549 was > 100 µM (inactive); in the experiment with HOP-62, > 100 µM (inactive); in the experiment with SN12C, > 100 µM (inactive); with SK-MEL-2, > 100 µM (inactive); with SF-539, > 100 µM (inactive); in the experiment on SR, 61.8 µM (inactive). The GI50 in the experiment with KM12 was > 100 µM (inactive); in the experiment with HCT-15 it was 80.2 µM; in the experiment with M14 it was > 100 µM (inactive); in the experiment with OVCAR-4 it was > 100 µM (inactive); in the experiment with UO-31, 32.4 µM (inactive); in the experiment on OVCAR-8, > 100 µM (inactive). Also, the GI50 in the experiment with RPMI-8226 was > 100 µM (inactive); in the experiment on OVCAR-3, > 100 µM (inactive); in the experiment with UACC-257, 90.2 µM (inactive); with NCI-H226 it was 59 µM (inactive).

The values above are taken from ChEMBL document CHEMBL1201862, “PubChem BioAssay data set” (2004).
